Reference: ChEMBL document CHEMBL1697731, “Cheminformatics analysis of assertions mined from literature that describe drug-induced liver injury in different species” (Chem Res Toxicol, 2010)

Columns and labels:
[1] = system: Hepatotoxicity; test: Literature-mined compound from Fourches et al multi-species drug-induced liver injury (DILI) dataset, effect in humans; settings: human
[2] = system: Hepatotoxicity; test: Literature-mined compound from Fourches et al multi-species drug-induced liver injury (DILI) dataset, effect in rodents; settings: rodentia
[3] = system: Hepatotoxicity; test: Literature-mined compound from Fourches et al multi-species drug-induced liver injury (DILI) dataset, effect in non-rodents

| Structure (SMILES) | Hepatotoxicity [1] | Hepatotoxicity [2] | Hepatotoxicity [3] | Hepatotoxicity ([1]; Liver) | Hepatotoxicity ([2]; Liver) | Hepatotoxicity ([3]; Liver) |
| --- | --- | --- | --- | --- | --- | --- |
| C[C@@H]1C/C=C/C=C/C=C/C=C/[C@H](O[C@@H]2O[C@H](C)[C@@H](O)[C@H](N)[C@@H]2O)C[C@@H]2O[C@](O)(C[C@@H](O)C[C@H]3O[C@@H]3/C=C/C(=O)O1)C[C@H](O)[C@H]2C(=O)O [NATAMYCIN] | no drug-induced liver injury reported | no drug-induced liver injury reported | drug-induced liver injury reported | – | – | – |
| CCc1nn(CCCN2CCN(c3cccc(Cl)c3)CC2)c(=O)n1CCOc1ccccc1 [NEFAZODONE] | drug-induced liver injury reported | no drug-induced liver injury reported | no drug-induced liver injury reported | – | – | – |
| CN(C)C(=O)Oc1cccc([N+](C)(C)C)c1.[Br-] [NEOSTIGMINE BROMIDE] | no drug-induced liver injury reported | drug-induced liver injury reported | no drug-induced liver injury reported | – | – | – |
| CCN[C@@H]1C[C@H](N)[C@@H](O[C@H]2OC(CN)=CC[C@H]2N)[C@H](O)[C@H]1O[C@H]1OC[C@](C)(O)[C@H](NC)[C@H]1O [NETILMICIN] | drug-induced liver injury reported | drug-induced liver injury reported | no drug-induced liver injury reported | – | – | – |
| Cc1ccnc2c1NC(=O)c1cccnc1N2C1CC1 [NEVIRAPINE] | drug-induced liver injury reported | no drug-induced liver injury reported | no drug-induced liver injury reported | – | – | – |
| NC(=O)c1cccnc1 [NIACINAMIDE] | drug-induced liver injury reported | drug-induced liver injury reported | no drug-induced liver injury reported | – | – | – |
| O=C(CCNNC(=O)c1ccncc1)NCc1ccccc1 [NIALAMIDE] | no drug-induced liver injury reported | drug-induced liver injury reported | no drug-induced liver injury reported | – | – | – |
| CO[C@]12C[C@@H](COC(=O)c3cncc(Br)c3)CN(C)[C@@H]1Cc1cn(C)c3cccc2c13 [NICERGOLINE] | no drug-induced liver injury reported | drug-induced liver injury reported | no drug-induced liver injury reported | – | – | – |
| O=C(OCC(COC(=O)c1cccnc1)(COC(=O)c1cccnc1)COC(=O)c1cccnc1)c1cccnc1 [NICERITROL] | no drug-induced liver injury reported | no drug-induced liver injury reported | drug-induced liver injury reported | – | – | – |
| O=C(NCCO[N+](=O)[O-])c1cccnc1 [NICORANDIL] | no drug-induced liver injury reported | drug-induced liver injury reported | no drug-induced liver injury reported | – | – | – |
| CN1CCC[C@H]1c1cccnc1 [NICOTINE] | – | – | – | drug-induced liver injury reported | drug-induced liver injury reported | no drug-induced liver injury reported |
| COC(=O)C1=C(C)NC(C)=C(C(=O)OC)C1c1ccccc1[N+](=O)[O-] [NIFEDIPINE] | drug-induced liver injury reported | drug-induced liver injury reported | drug-induced liver injury reported | – | – | – |
| O=C(O)c1cccnc1Nc1cccc(C(F)(F)F)c1 [NIFLUMIC ACID] | no drug-induced liver injury reported | drug-induced liver injury reported | no drug-induced liver injury reported | – | – | – |
| CC1CS(=O)(=O)CCN1/N=C/c1ccc([N+](=O)[O-])o1 (stereo not given) [NIFURTIMOX] | – | – | – | no drug-induced liver injury reported | drug-induced liver injury reported | no drug-induced liver injury reported |
| O=C1CN(/N=C/c2ccc([N+](=O)[O-])o2)C(=O)N1CO [NIFURTOINOL] | drug-induced liver injury reported | no drug-induced liver injury reported | no drug-induced liver injury reported | – | – | – |
